Laboratory results from patent US6541463B1, “Inhibitors of type 5 and type 3 17β-hydroxysteroid dehydrogenase and methods for their use” (Endorecherche, Inc., priority 1998, dated 2003).

Columns and labels:
[1] = molecular target: T1, glucocorticoid receptor (Rattus norvegicus, UniProt P06536); experiment: Glucocorticoid receptor assay: inhibition of [3H]-dexamethasone binding, liver cytosol; conditions: for inhibition at 1 µM: read-out: % Inhibition Glucocorticold Receptor E^−6; for inhibition at 0.01 µM: read-out: % Inhibition Glucocorticold Receptor E^−8
T1 construct: from tissue; host or cells: liver cytosol of male Sprague-Dawley rats
T1 sequence (P06536 1-795): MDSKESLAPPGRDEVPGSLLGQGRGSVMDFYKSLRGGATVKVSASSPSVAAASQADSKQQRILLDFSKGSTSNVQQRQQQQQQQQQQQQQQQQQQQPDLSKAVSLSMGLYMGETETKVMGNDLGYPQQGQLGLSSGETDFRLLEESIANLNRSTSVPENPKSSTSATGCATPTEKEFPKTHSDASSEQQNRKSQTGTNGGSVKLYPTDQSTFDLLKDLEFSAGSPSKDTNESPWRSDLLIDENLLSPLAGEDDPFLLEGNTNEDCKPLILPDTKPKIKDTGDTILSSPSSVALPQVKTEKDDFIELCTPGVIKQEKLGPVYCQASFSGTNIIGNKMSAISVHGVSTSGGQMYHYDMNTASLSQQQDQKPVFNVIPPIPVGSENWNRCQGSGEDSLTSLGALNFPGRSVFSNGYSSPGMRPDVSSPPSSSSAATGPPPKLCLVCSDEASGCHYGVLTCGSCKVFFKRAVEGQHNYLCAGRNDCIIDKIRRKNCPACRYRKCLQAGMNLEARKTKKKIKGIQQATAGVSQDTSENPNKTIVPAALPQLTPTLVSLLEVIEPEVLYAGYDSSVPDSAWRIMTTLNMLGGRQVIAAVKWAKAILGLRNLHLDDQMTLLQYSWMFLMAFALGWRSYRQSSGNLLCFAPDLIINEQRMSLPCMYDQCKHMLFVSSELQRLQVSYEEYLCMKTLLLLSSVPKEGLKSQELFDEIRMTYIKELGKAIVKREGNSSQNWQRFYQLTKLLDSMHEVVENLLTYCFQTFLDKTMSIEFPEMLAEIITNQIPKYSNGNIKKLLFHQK

[2] = tested on: Shionogi mouse mammary carcinoma cells; experiment: Antiandrogenic activity: inhibition of DHT-induced proliferation of Shionogi cells; type: cell-based; conditions: for Antiandrogenic Activity Shionogi, DHT E^−6 / Antiandrogenic Activity Shionogi, DHT E^−7: Table 4′, DHT-induced proliferation; for Antiandrogenic Activity Shionogi, DHT E^−6: E^−6 (10^−6 M)
Procedure, shortened: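 Androgen-sensitive Shionogi mouse mammary carcinoma cells, 20 000/well, were grown 10–12 days in charcoal-stripped serum with increasing agent concentrations in triplicate, with medium changed every 3–4 days. Cell number was counted directly, and ED50 was derived by least-square regression.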

Row | Compound | inhibition at 1 µM ([1]; Table 4′, E^−6) | inhibition at 0.01 µM ([1]; Table 4′, E^−8) | Antiandrogenic Activity Shionogi, DHT E^−6 [2] | Antiandrogenic Activity Shionogi, DHT E^−7 [2] | % Inhibition Glucocorticold Receptor E^−6 ([1]; Table 4′, E^−6) | % Inhibition Glucocorticold Receptor E^−8 ([1]; Table 4′, E^−8) | % Inhibition Glucocorticoid Receptor ([1]; * E^−5) | % Inhibition Glucocorticoid Receptor ([1]; * E^−7) | % Inhibition Glucocorticoid Receptor ([1]; E^−6) | % Inhibition Glucocorticoid Receptor ([1]; E^−8) | IC50 ([2]; Mus musculus, read-out: Antiandrogenic Activity Shionogi, DHT [IC50])
1 | COCCOc1cc2c(cc1C(=O)O)C1CCC3(C)C(CCC34CCC(C)(C)C(=O)O4)C1CC2 [EM-1405, 2-Carboxy-3-(2″-methoxyethyloxy)-1,3,5(10)-estratrien-17(R)-spiro-2′-(5′,5′-dimethyl-6′-oxo)tetrahydropyran] | 0% | 0% | 0% | 0% | – | – | – | – | – | – | –
2 | CC1(C)CC[C@@]2(CCC3C4CCc5cc6oncc6cc5C4CC[C@@]32C)OC1=O (stereo partly drawn) [EM-1407-CS, 1,3,5(10)-estratrien-(2,3-oximino)-17(R)-spiro-2′-(5′,5′-dimethyl-6′-oxo)tetrahydropyran] | 0% | 0% | −96% | −16% | – | – | – | – | – | – | –
3 | COCCOc1ccc2c(c1)C(=O)CC1C2CCC2(C)C1CCC21CCC(C)(C)C(=O)O1 (centres unmarked) [EM-1408-CS] | 0% | 0% | −94% | −19% | – | – | – | – | – | – | –
4 | COc1cc2c(cc1C)C1CCC3(C)C(CCC34CCC(C)(C)C(=O)O4)C1CC2 (centres unmarked) [EM-1412-CS] | 2% | 0% | −60% | 0% | – | – | – | – | – | – | –
5 | COCCOc1cc2c(cc1C(N)=O)C1CC[C@@]3(C)C(CC[C@@]34CCC(C)(C)C(=O)O4)C1CC2 (stereo partly drawn) [EM-1424, 2-Carbamoyl-3-(2″-methoxyethyloxy)-1,3,5(10)-estratrien 17(R)-spiro-2′-(5′,5′-dimethyl-6′-oxo)tetrahydropyran] | 0% | 0% | −58% | −22% | – | – | – | – | – | – | –
6 | COCCOc1cc2c(cc1C(F)(F)F)[C@H]1CC[C@@]3(C)[C@@H](CC[C@@]34CCC(C)(C)C(=O)O4)[C@@H]1CC2 [EM-1438, 3-(2′-Methoxyethoxy)-2-trifluoromethyl-1,3,5(10)-estratrien-17(R)-spiro-2′-(5′,5′-dimethyl-6′-oxo)tetrahydropyran] | – | – | −53% | 0% | 0% | 1% | – | – | – | – | –
7 | CC(=O)O[C@]1(C(C)=O)CCC2C3C=C(C)C4=CC(=O)CC[C@]4(C)C3CC[C@@]21C (some centres unmarked) [megestrol acetate, reference compound] | – | – | – | – | – | – | 98* % | 17* % | 82% | 0% | 10 nM
